Measured values published in patent US20230119479A1, “A HISTONE DEACETYLASE INHIBITOR HAVING A NITROGEN-CONTAINING AROMATIC HETEROCYCLYL GROUP” (SHIONOGI & CO., LTD., priority 2019, published 2023).
pIC50: −log10 of the molar value.

Key:
[1] = BA test (oral absorption); assay type: in vivo; settings: plasma; mice or rats; oral vs intravenous administration
Procedure: Materials and methods for experiments to evaluate oral absorption (1) Experimental animals: mice or rats were used. (2) Rearing condition: mice or rats were allowed free access to solid feed and sterilized tap water. (3) Setting of dosage and grouping: Oral administration and intravenous administration were performed with the predetermined dosage. Grouping was set as below. (Dosage was changed per compound)
Oral administration 2 to 60 μmol/kg or 1 to 30 mg/kg (n=2 to 3)
Intravenous administration 1 to 30 μmol/kg or 0.5 to 10 mg/kg (n=2 to 3)
(4) Preparation of administration solutions: Oral administration was performed as suspension or solution. Intravenous administration was performed after solubilization. (5) Routes of administration: Oral administration was performed mandatory into the stomach by oral sonde. Intravenous administration was performed from caudal vein by syringes with needle. (6) Evaluation items: Blood was collected serially and concentration of a compound of the present invention in plasma was measured by LC/MS/MS. (7) Statistical analysis: About transition of concentration of a compound of the present invention in plasma, the area under the plasma concentration versus time curve (AUC) was calculated by non-linear least-squares method program, and bioavailability (BA) of a compound of the present invention was calculated from dosages and AUCs of the oral administration group and the intravenous administration group. The dilution concentration or the dilution solvent were changed as necessary.

[2] = molecular target: T1, HDAC2 Human recombinant C-terminal FLAG-tag (Homo sapiens, UniProt Q92769); assay: Measurement of HDAC2 enzyme inhibitory activity (HTRF); assay type: biochemical; settings: recombinant HDAC2, H3K9ac peptide, 3 hours room temperature; read-out: HDAC2 IC50
T1 construct: FLAG (C); purchased BPS Bioscience 50052
Outline: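 Compounds were tested at 8 points in 3-fold dilutions from 99 μM final (n=2) against FLAG-tagged HDAC2 with biotinylated H3K9ac (1-21) peptide (0.6 μM as added). The reaction ran 3 h at room temperature in Tris pH 8.0 buffer, then was stopped with SAHA. Deacetylated product was detected by HTRF (Eu-anti-H3K9me0 antibody, streptavidin-XL665) as the 665/615-620 nm ratio.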

[3] = molecular target: T2, human ether-a-go-go related gene (hERG) channel (Homo sapiens, UniProt Q12809); assay: hERG test (whole cell patch clamp); assay type: cell-based; settings: CHO cells expressing hERG; concentration not given
T2 construct: expressed in transfected cells; host or cells: CHO cells
Description: For the purpose of assessing risk of an electrocardiogram QT interval prolongation of the compound of the present invention, effects of the compound of the present invention on delayed rectifier K^+ current (IKr), which plays an important role in the ventricular repolarization process, was studied using CHO cells expressing human ether-a-go-go related gene (hERG) channel.
After a cell was retained at a membrane potential of −80 mV by whole cell patch clamp method using an automated patch clamp system (QPatch; Sophion Bioscience A/S) and gave a leak potential of −50 mV, IKr induced by depolarization pulse stimulation at +20 mV for 2 seconds, and further, repolarization pulse stimulation at −50 mV for 2 seconds, was recorded. A vehicle, which was the 0.1% dimethyle sulfoxide solution in extracellular solution (NaCl: 145 mmol/L, KCl: 4 mmol/L, CaCl2: 2 mmol/L, MgCl2: 1 mmol/L, glucose:10 mmol/L, HEPES (4-(2-hydroxyethyl)-1-piperazineethanesulfonic acid): 10 mmol/L, pH7.4), or the compound of the present invention had been dissolved at an objective concentration in the extracellular solution was applied to the cell at room temperature for 7 minutes or more. From the recording IKr, an absolute value of the tail peak current was measured based on the current value at the resting membrane potential using analysis software (QPatch assay software; Sophion Bioscience A/S). Further, the % inhibition of tail peak current for the compound of the present invention relative to the tail peak current after application of the vehicle was calculated to assess influence of the compound of the present invention on IKr. The dilution concentration and dilution solvent were changed as necessary.

T1 sequence (Q92769 whole entry): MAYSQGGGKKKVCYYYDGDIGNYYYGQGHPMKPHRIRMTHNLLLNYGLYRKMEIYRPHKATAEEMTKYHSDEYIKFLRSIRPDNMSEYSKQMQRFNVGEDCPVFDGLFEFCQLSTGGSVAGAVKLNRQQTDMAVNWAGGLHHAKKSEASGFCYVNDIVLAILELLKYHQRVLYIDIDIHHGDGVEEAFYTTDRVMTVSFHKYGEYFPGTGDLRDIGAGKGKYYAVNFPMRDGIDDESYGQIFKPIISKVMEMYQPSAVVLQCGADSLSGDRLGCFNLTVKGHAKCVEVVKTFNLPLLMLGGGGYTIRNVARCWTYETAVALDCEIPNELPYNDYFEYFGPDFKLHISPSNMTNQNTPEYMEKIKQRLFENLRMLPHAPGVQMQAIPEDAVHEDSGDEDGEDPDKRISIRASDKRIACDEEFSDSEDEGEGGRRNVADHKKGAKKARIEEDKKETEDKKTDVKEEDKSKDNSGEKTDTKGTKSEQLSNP
T2 sequence (Q12809 whole entry): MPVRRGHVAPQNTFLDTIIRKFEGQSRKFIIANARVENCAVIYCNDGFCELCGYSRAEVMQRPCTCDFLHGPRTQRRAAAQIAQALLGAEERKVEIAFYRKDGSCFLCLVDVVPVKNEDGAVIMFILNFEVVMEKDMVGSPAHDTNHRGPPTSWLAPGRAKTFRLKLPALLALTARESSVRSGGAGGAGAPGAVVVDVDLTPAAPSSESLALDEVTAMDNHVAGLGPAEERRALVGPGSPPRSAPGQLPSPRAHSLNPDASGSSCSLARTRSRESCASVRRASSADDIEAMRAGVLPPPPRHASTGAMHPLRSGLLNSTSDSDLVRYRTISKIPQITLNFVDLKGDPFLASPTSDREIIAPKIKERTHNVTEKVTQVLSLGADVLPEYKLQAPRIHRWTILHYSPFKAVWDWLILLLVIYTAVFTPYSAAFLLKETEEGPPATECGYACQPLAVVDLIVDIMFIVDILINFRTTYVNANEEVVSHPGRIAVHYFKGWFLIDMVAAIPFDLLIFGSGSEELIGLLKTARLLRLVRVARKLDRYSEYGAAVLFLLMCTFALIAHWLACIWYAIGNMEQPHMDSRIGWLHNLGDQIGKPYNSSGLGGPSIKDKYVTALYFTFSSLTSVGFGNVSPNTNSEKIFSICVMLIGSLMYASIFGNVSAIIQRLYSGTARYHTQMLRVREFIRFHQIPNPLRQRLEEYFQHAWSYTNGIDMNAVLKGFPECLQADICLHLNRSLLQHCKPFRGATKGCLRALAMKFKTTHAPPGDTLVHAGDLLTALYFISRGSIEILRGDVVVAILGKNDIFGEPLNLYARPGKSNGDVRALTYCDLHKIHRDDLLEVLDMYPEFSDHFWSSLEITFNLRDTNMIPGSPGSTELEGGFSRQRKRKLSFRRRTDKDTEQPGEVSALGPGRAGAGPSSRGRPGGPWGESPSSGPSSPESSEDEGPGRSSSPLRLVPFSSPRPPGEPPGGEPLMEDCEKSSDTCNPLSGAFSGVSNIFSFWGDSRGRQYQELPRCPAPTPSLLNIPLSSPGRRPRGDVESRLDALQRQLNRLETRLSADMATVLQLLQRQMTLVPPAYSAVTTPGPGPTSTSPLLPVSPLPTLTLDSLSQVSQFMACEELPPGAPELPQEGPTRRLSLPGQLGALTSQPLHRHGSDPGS

SMILES | bioavailability [1] [%] | pIC50 [2] | % inhibition of tail peak current (IKr) [3] [%]
Cn1cc(-c2cnc(C(=O)Nc3nc(-c4cccs4)ccc3N)cn2)cn1 [Compound I-017] | 19.6 | 6.66 | 
N#Cc1ccc(C(=O)Nc2cc(-c3ccc(F)nc3)ccc2N)nc1 [Compound I-092] | 22.4 | 6.60 | 30
Cn1cc(-c2cnc(C(=O)Nc3nc(-n4cccc4)ccc3N)cn2)cn1 [Compound I-023] | 43.7 | 6.74 | 

The next lines start with results.

bioavailability [1] [%] | pIC50 [2] | SMILES | % inhibition of tail peak current (IKr) [3] [%]
22.7 | 6.85 | CCOc1cnc(C(=O)Nc2cc(-c3ccc(F)nc3)ccc2N)cn1 [Compound I-118] | 23.3
38.4 | 7.32 | Cn1cc(-c2cnc(C(=O)Nc3cc(-c4ccc(F)nc4)ccc3N)cn2)cn1 [Compound I-080] | 9.5
32.1 | 6.74 | C[C@H](F)COc1cnc(C(=O)Nc2cc(-c3ccc(F)nc3)ccc2N)cn1 (racemic) [Compound I-125] | 18.6
37.2 | 6.85 | Cn1cc(-c2ccc(N)c(NC(=O)c3cnc(C4CC4)cn3)c2)cn1 [Compound I-130] | 3.3
